# Tested on: MV-4-11 cells
# Assay: Gene expression microarray analysis (Affymetrix PrimeView) and GSEA
# Type: cell-based, human
# Parameters: RFU PODN (11730768_x_at) / Fold change /veh PODN (11730768_x_at) / RFU LINC00158 (11744669_a_at) / Fold change /veh LINC00158 (11744669_a_at) / RFU DUSP10 (11751237_a_at) / Fold change /veh DUSP10 (11751237_a_at) / RFU ID3 (11757404_x_at) / Fold change /veh ID3 (11757404_x_at) / RFU PLEKHG5 (11737974_s_at) / Fold change /veh PLEKHG5 (11737974_s_at) / RFU LRRC4B (11730491_at) / Fold change /veh LRRC4B (11730491_at) / RFU GIMAP4 (11747438_a_at) / Fold change /veh GIMAP4 (11747438_a_at) / RFU KRT8 (11758183_x_at) / Fold change /veh KRT8 (11758183_x_at) / RFU CNN1 (11734310_a_at) / Fold change /veh CNN1 (11734310_a_at) / RFU VPS37D (11726825_at) / Fold change /veh VPS37D (11726825_at) / RFU C10orf10 (11716522_x_at) / Fold change /veh C10orf10 (11716522_x_at) / RFU KIR2DL2 /// KIR2DL4 /// KIR2DL5A /// KIR2DL5B /// KIR2DS1 /// KIR2DS2 /// KIR2DS3 /// KIR2DS4 /// KIR3DL3 /// KIR3DL3 /// KIR3DS1 (11738374_at) / Fold change /veh KIR2DL2 /// KIR2DL4 /// KIR2DL5A /// KIR2DL5B /// KIR2DS1 /// KIR2DS2 /// KIR2DS3 /// KIR2DS4 /// KIR3DL3 /// KIR3DL3 /// KIR3DS1 (11738374_at) / RFU C1QL1 (11718748_at) / Fold change /veh C1QL1 (11718748_at) / RFU TMPRSS4 (11747572_a_at) / Fold change /veh TMPRSS4 (11747572_a_at) / RFU HAMP (11756126_x_at) / Fold change /veh HAMP (11756126_x_at) / RFU RNFT2 (11725882_a_at) / Fold change /veh RNFT2 (11725882_a_at) / RFU NR4A2 (11747474_a_at) / Fold change /veh NR4A2 (11747474_a_at) / RFU ABCC12 (11746883_a_at) / Fold change /veh ABCC12 (11746883_a_at) / RFU TMEM136 (11760407_x_at) / Fold change /veh TMEM136 (11760407_x_at) / RFU CLDN22 /// WWC2 (11732394_at) / Fold change /veh CLDN22 /// WWC2 (11732394_at) / RFU HLA-DPB1 (11760878_x_at) / Fold change /veh HLA-DPB1 (11760878_x_at) / RFU SPINT1 (11716480_a_at) / Fold change /veh SPINT1 (11716480_a_at) / RFU GAP43 (11754022_s_at) / Fold change /veh GAP43 (11754022_s_at) / RFU A4GNT (11735810_at) / Fold change /veh A4GNT (11735810_at) / RFU PRB3 (11715151_x_at) / Fold change /veh PRB3 (11715151_x_at) / RFU TUBB4B (11761932_at) / Fold change /veh TUBB4B (11761932_at) / RFU CAPN14 (11732068_a_at) / Fold change /veh CAPN14 (11732068_a_at) / RFU TMCC2 (11721928_a_at) / Fold change /veh TMCC2 (11721928_a_at) / RFU IRGQ (11745062_a_at) / Fold change /veh IRGQ (11745062_a_at) / RFU FAM174B (11720279_a_at) / Fold change /veh FAM174B (11720279_a_at) / RFU TMPRSS4 (11748680_a_at) / Fold change /veh TMPRSS4 (11748680_a_at) / RFU FAM212B (11763350_a_at) / Fold change /veh FAM212B (11763350_a_at) / RFU PLEKHG5 (11743358_a_at) / Fold change /veh PLEKHG5 (11743358_a_at) / RFU ZSCAN30 (11745921_a_at) / Fold change /veh ZSCAN30 (11745921_a_at) / RFU CMKLR1 (11741424_a_at) / Fold change /veh CMKLR1 (11741424_a_at) / RFU LOC101060620 /// MAPK8IP1 (11723275_at) / Fold change /veh LOC101060620 /// MAPK8IP1 (11723275_at) / RFU SPTSSB (11747773_x_at) / Fold change /veh SPTSSB (11747773_x_at) / RFU PRSS12 (11739890_at) / Fold change /veh PRSS12 (11739890_at) / RFU BIN1 (11741810_x_at) / Fold change /veh BIN1 (11741810_x_at) / RFU WNT11 (11732464_a_at) / Fold change /veh WNT11 (11732464_a_at) / RFU C10orf10 (11716521_a_at) / Fold change /veh C10orf10 (11716521_a_at) / RFU C5orf56 (11738089_at) / Fold change /veh C5orf56 (11738089_at) / RFU CYB561 (11721691_x_at) / Fold change /veh CYB561 (11721691_x_at) / RFU ANKRD19P (11752326_a_at) / Fold change /veh ANKRD19P (11752326_a_at) / RFU OR2T12 /// OR2T33 /// OR2T8 (11738714_s_at) / Fold change /veh OR2T12 /// OR2T33 /// OR2T8 (11738714_s_at) / RFU VCAN (11748164_a_at) / Fold change /veh VCAN (11748164_a_at) / RFU JSRP1 (11732532_at) / Fold change /veh JSRP1 (11732532_at) / RFU KRTAP10-11 (11738290_x_at) / Fold change /veh KRTAP10-11 (11738290_x_at) / RFU MYO3A (11730013_a_at) / Fold change /veh MYO3A (11730013_a_at) / RFU EBF3 (11725865_a_at) / Fold change /veh EBF3 (11725865_a_at) / RFU CAMK2N1 (11719241_x_at) / Fold change /veh CAMK2N1 (11719241_x_at) / RFU C5orf56 (11738088_a_at) / Fold change /veh C5orf56 (11738088_a_at) / RFU OLFML3 (11715873_a_at) / Fold change /veh OLFML3 (11715873_a_at) / RFU LOC100653217 /// NTM (11731650_a_at) / Fold change /veh LOC100653217 /// NTM (11731650_a_at) / RFU MAPK11 (11762145_a_at) / Fold change /veh MAPK11 (11762145_a_at) / RFU FIZ1 (11724087_x_at) / Fold change /veh FIZ1 (11724087_x_at) / RFU OASL (11726364_x_at) / Fold change /veh OASL (11726364_x_at) / RFU SOX15 (11748057_x_at) / Fold change /veh SOX15 (11748057_x_at) / RFU CD79A (11719716_a_at) / Fold change /veh CD79A (11719716_a_at) / RFU HIST1H1D (11736915_at) / Fold change /veh HIST1H1D (11736915_at) / RFU CASKIN2 (11723855_a_at) / Fold change /veh CASKIN2 (11723855_a_at) / RFU LOC730098 (11760151_x_at) / Fold change /veh LOC730098 (11760151_x_at) / RFU OR4N2 (11742367_at) / Fold change /veh OR4N2 (11742367_at) / RFU PRRT2 (11749266_a_at) / Fold change /veh PRRT2 (11749266_a_at) / RFU SNX32 (11753110_a_at) / Fold change /veh SNX32 (11753110_a_at) / RFU CDHR5 (11726645_a_at) / Fold change /veh CDHR5 (11726645_a_at) / RFU RCAN1 (11760418_a_at) / Fold change /veh RCAN1 (11760418_a_at) / RFU FAM167A (11723789_a_at) / Fold change /veh FAM167A (11723789_a_at) / RFU FAM26E (11764081_at) / Fold change /veh FAM26E (11764081_at) / RFU ISYNA1 (11749810_s_at) / Fold change /veh ISYNA1 (11749810_s_at) / RFU ACY1 (11761880_at) / Fold change /veh ACY1 (11761880_at) / RFU 11764098_at / Fold change /veh 11764098_at / RFU SAMD14 (11745864_x_at) / Fold change /veh SAMD14 (11745864_x_at) / RFU NPB (11741838_a_at) / Fold change /veh NPB (11741838_a_at) / RFU TMPRSS6 (11731388_a_at) / Fold change /veh TMPRSS6 (11731388_a_at) / RFU KRTAP10-2 (11738614_at) / Fold change /veh KRTAP10-2 (11738614_at) / RFU ARHGAP8 /// PRR5-ARHGAP8 (11727945_x_at) / Fold change /veh ARHGAP8 /// PRR5-ARHGAP8 (11727945_x_at) / RFU KRTAP5-7 /// NADSYN1 (11734609_at) / Fold change /veh KRTAP5-7 /// NADSYN1 (11734609_at) / RFU RASL12 (11751679_a_at) / Fold change /veh RASL12 (11751679_a_at) / RFU CDKN2B (11736163_a_at) / Fold change /veh CDKN2B (11736163_a_at) / RFU PRF1 (11729649_at) / Fold change /veh PRF1 (11729649_at) / RFU, ZNF638 /// ZNF638-IT1 / Fold change vs veh, ZNF638 /// ZNF638-IT1 / RFU, PANK3 / Fold change vs veh, PANK3 / RFU, SH3YL1 / Fold change vs veh, SH3YL1 / RFU, ZEB2 / Fold change vs veh, ZEB2 / RFU, NRIP1 / Fold change vs veh, NRIP1 / RFU, PTTG1IP / Fold change vs veh, PTTG1IP / RFU, CAPN2 / Fold change vs veh, CAPN2 / RFU, MED14 / Fold change vs veh, MED14 / RFU, SNORA58 / Fold change vs veh, SNORA58 / RFU, C1orf63 / Fold change vs veh, C1orf63 / RFU, LRRFIP1 / Fold change vs veh, LRRFIP1 / RFU, NDUFAF7 / Fold change vs veh, NDUFAF7 / RFU, SLC12A2 / Fold change vs veh, SLC12A2 / RFU, IBTK / Fold change vs veh, IBTK / RFU, ESF1 / Fold change vs veh, ESF1 / Fold change vs veh, TMEM50B / RFU, TAOK1 / Fold change vs veh, TAOK1 / RFU, ACBD3 / Fold change vs veh, ACBD3 / RFU, TMA16 / Fold change vs veh, TMA16 / RFU, RWDD3 / Fold change vs veh, RWDD3 / RFU, BCAT1 / Fold change vs veh, BCAT1 / RFU, EDEM3 / Fold change vs veh, EDEM3 / RFU, TMEM33 / Fold change vs veh, TMEM33 / RFU, WDR75 / Fold change vs veh, WDR75 / RFU, AHCTF1 / Fold change vs veh, AHCTF1 / RFU, TFRC / Fold change vs veh, TFRC / RFU, ZDHHC17 / Fold change vs veh, ZDHHC17 / RFU, NOM1 / Fold change vs veh, NOM1 / RFU, ARL8B / Fold change vs veh, ARL8B / RFU, ZBTB11 / Fold change vs veh, ZBTB11 / RFU, TAMM41 / Fold change vs veh, TAMM41 / RFU, KIAA1704 /// LOC100996395 / Fold change vs veh, KIAA1704 /// LOC100996395 / RFU, ING1 / Fold change vs veh, ING1 / RFU, TRMT61B / Fold change vs veh, TRMT61B / RFU, FUBP3 / Fold change vs veh, FUBP3 / RFU, TP53 / Fold change vs veh, TP53 / RFU, TNKS2 / Fold change vs veh, TNKS2 / RFU, ZFP14 / Fold change vs veh, ZFP14 / RFU, ACTR2 / Fold change vs veh, ACTR2 / RFU, PPP3R1 / Fold change vs veh, PPP3R1 / RFU, PIK3R1 / Fold change vs veh, PIK3R1 / RFU, HNRNPA1 / Fold change vs veh, HNRNPA1 / RFU, RNF170 / Fold change vs veh, RNF170 / RFU, ZNF28 / Fold change vs veh, ZNF28 / RFU, RNGTT / Fold change vs veh, RNGTT / RFU, OGT / Fold change vs veh, OGT / RFU, BRD1 / Fold change vs veh, BRD1 / RFU, MARS / Fold change vs veh, MARS / RFU, ZNF655 / Fold change vs veh, ZNF655 / RFU, FAHD1 / Fold change vs veh, FAHD1 / RFU, BDP1 / Fold change vs veh, BDP1 / RFU, LRRCC1 / Fold change vs veh, LRRCC1 / RFU, ARID1A / Fold change vs veh, ARID1A / RFU, ZNF146 / Fold change vs veh, ZNF146 / RFU, ZNF330 / Fold change vs veh, ZNF330 / RFU, GPN3 / Fold change vs veh, GPN3 / RFU, C9orf123 / Fold change vs veh, C9orf123 / RFU, N4BP2L2 / Fold change vs veh, N4BP2L2 / RFU, ARFIP1 / Fold change vs veh, ARFIP1 / RFU, FAM179B / Fold change vs veh, FAM179B / RFU, BCL10 / Fold change vs veh, BCL10 / RFU, UHRF1BP1L / Fold change vs veh, UHRF1BP1L / RFU, BET1 / Fold change vs veh, BET1 / RFU, CNOT2 / Fold change vs veh, CNOT2 / RFU, ZNF268 / Fold change vs veh, ZNF268 / Fold change vs veh, ZNF507 / RFU, DGCR2 / Fold change vs veh, DGCR2 / RFU, WDSUB1 / Fold change vs veh, WDSUB1 / Fold change vs veh, HSP90B1 /// MIR3652 / RFU, ADSS / Fold change vs veh, ADSS / RFU, GK / Fold change vs veh, GK / RFU, ZNF148 / Fold change vs veh, ZNF148 / RFU, TAF9 / Fold change vs veh, TAF9 / RFU, SLC1A5 / Fold change vs veh, SLC1A5 / RFU, SLMO2 / Fold change vs veh, SLMO2 / RFU, ABCC4 / Fold change vs veh, ABCC4 / RFU, LOC101060439 /// RAP1B / Fold change vs veh, LOC101060439 /// RAP1B / RFU, RFX7 / Fold change vs veh, RFX7 / RFU, GTPBP10 / Fold change vs veh, GTPBP10 / RFU, CNEP1R1 / Fold change vs veh, CNEP1R1 / RFU, BIVM-ERCC5 /// ERCC5 / Fold change vs veh, BIVM-ERCC5 /// ERCC5 / RFU, ILF3 / Fold change vs veh, ILF3 / RFU 11762660_at / Fold change /veh 11762660_at / RFU VCAN (11757783_s_at) / Fold change /veh VCAN (11757783_s_at) / RFU DDX43 (11728927_at) / Fold change /veh DDX43 (11728927_at) / RFU KRT8 (11758188_x_at) / Fold change /veh KRT8 (11758188_x_at) / RFU NKD1 (11759106_at) / Fold change /veh NKD1 (11759106_at) / RFU SRD5A1 (11742802_a_at) / Fold change /veh SRD5A1 (11742802_a_at) / RFU TPSAB1 /// TPSB2 (11721975_s_at) / Fold change /veh TPSAB1 /// TPSB2 (11721975_s_at) / RFU GSTM3 (11746129_a_at) / Fold change /veh GSTM3 (11746129_a_at) / RFU IL23R (11737362_x_at) / Fold change /veh IL23R (11737362_x_at) / RFU TMEM51 (11727254_a_at) / Fold change /veh TMEM51 (11727254_a_at) / RFU PIWIL2 (11732686_x_at) / Fold change /veh PIWIL2 (11732686_x_at) / RFU ORM1 (11744905_x_at) / Fold change /veh ORM1 (11744905_x_at) / RFU CCDC152 (11743942_at) / Fold change /veh CCDC152 (11743942_at) / RFU ECM1 (11717891_a_at) / Fold change /veh ECM1 (11717891_a_at) / RFU IL23R (11748794_a_at) / Fold change /veh IL23R (11748794_a_at) / RFU TNFAIP8L3 (11732012_x_at) / Fold change /veh TNFAIP8L3 (11732012_x_at) / RFU MBOAT4 (11741988_at) / Fold change /veh MBOAT4 (11741988_at) / RFU 11764193_at / Fold change /veh 11764193_at / RFU TMEM53 (11763286_at) / Fold change /veh TMEM53 (11763286_at) / RFU MAGEB2 (11727129_at) / Fold change /veh MAGEB2 (11727129_at) / RFU TMEM200A (11744735_a_at) / Fold change /veh TMEM200A (11744735_a_at) / RFU CCDC152 (11751479_a_at) / Fold change /veh CCDC152 (11751479_a_at) / RFU FAM211A (11726209_a_at) / Fold change /veh FAM211A (11726209_a_at) / RFU RGS16 (11746705_a_at) / Fold change /veh RGS16 (11746705_a_at) / RFU VCAN (11755009_s_at) / Fold change /veh VCAN (11755009_s_at) / RFU RHOB (11743442_s_at) / Fold change /veh RHOB (11743442_s_at) / RFU RGS16 (11720943_a_at) / Fold change /veh RGS16 (11720943_a_at) / RFU RGS16 (11720944_at) / Fold change /veh RGS16 (11720944_at) / RFU, VPS4B / Fold change vs veh, VPS4B / RFU, CREB1 / Fold change vs veh, CREB1 / RFU, DNAJC13 / Fold change vs veh, DNAJC13 / RFU, GNAQ / Fold change vs veh, GNAQ / RFU, CDK5R1 / Fold change vs veh, CDK5R1 / RFU, ZRANB3 / Fold change vs veh, ZRANB3 / RFU, CUL4A / Fold change vs veh, CUL4A / RFU, CCNY / Fold change vs veh, CCNY / RFU, UFL1 / Fold change vs veh, UFL1 / RFU, COG3 / Fold change vs veh, COG3 / RFU, DIAPH2 / Fold change vs veh, DIAPH2 / RFU, SKA2 / Fold change vs veh, SKA2 / RFU, AFF3 / Fold change vs veh, AFF3 / RFU, LMF1 / Fold change vs veh, LMF1 / RFU, IPO11 / Fold change vs veh, IPO11 / RFU, DFFB / Fold change vs veh, DFFB / RFU, FOXP1 / Fold change vs veh, FOXP1 / RFU, CARD8 / Fold change vs veh, CARD8 / RFU, STRN3 / Fold change vs veh, STRN3 / RFU, ADK / Fold change vs veh, ADK / RFU, RASSF2 / Fold change vs veh, RASSF2 / RFU, WIPF1 / Fold change vs veh, WIPF1 / RFU, LARP1B / Fold change vs veh, LARP1B / RFU, RASA1 / Fold change vs veh, RASA1 / RFU, RB1 / Fold change vs veh, RB1 / RFU, PPFIA1 / Fold change vs veh, PPFIA1 / RFU, MAT2A / Fold change vs veh, MAT2A / RFU, CCT5 / Fold change vs veh, CCT5 / RFU, WDR92 / Fold change vs veh, WDR92 / RFU, CUX1 / Fold change vs veh, CUX1 / RFU, TTC7A / Fold change vs veh, TTC7A / RFU, TMEM135 / Fold change vs veh, TMEM135 / RFU, DEPTOR / Fold change vs veh, DEPTOR / RFU, CPM / Fold change vs veh, CPM / RFU, DNAJB6 / Fold change vs veh, DNAJB6 / RFU, CACNA2D3 / Fold change vs veh, CACNA2D3 / RFU, DTX4 / Fold change vs veh, DTX4 / RFU, TFCP2 / Fold change vs veh, TFCP2 / RFU, GMCL1 /// GMCL1P1 / Fold change vs veh, GMCL1 /// GMCL1P1 / RFU, AEBP2 / Fold change vs veh, AEBP2 / RFU, SNHG1 /// SNORD22 /// SNORD25 /// SNORD26 /// SNORD27 /// SNORD28 /// SNORD29 /// SNORD31 / Fold change vs veh, SNHG1 /// SNORD22 /// SNORD25 /// SNORD26 /// SNORD27 /// SNORD28 /// SNORD29 /// SNORD31 / Fold change (Aza/veh), C12orf56 (ProbeSet 11735607_a_at) / Fold change (ACY-1035/veh), C12orf56 (ProbeSet 11735607_a_at) / Fold change (Aza/veh), FGFR1OP (ProbeSet 11751329_s_at) / Fold change (ACY-1035/veh), FGFR1OP (ProbeSet 11751329_s_at) / Fold change (Aza/veh), VPS36 (ProbeSet 11739960_a_at) / Fold change (ACY-1035/veh), VPS36 (ProbeSet 11739960_a_at) / RFU SYPL1 (11715823_x_at) / Fold change /veh SYPL1 (11715823_x_at) / RFU IGFBP7 (11715501_s_at) / Fold change /veh IGFBP7 (11715501_s_at) / RFU REEP3 (11722064_at) / Fold change /veh REEP3 (11722064_at) / RFU IGLL1 (11728026_x_at) / Fold change /veh IGLL1 (11728026_x_at): dose or concentration left out as unconfirmed
# Details: ProbeSet 11722302_a_at; LIST B
structure (smiles),measurement,value
Nc1ncn([C@@H]2O[C@H](CO)[C@@H](O)[C@H]2O)c(=O)n1 [azacitidine],"Fold change vs veh, LRRFIP1",0.89

# Source: publication PMC5218480 (PLoS ONE, 2017)
